Reference: US11718604B2, “4-amino-6-(1,3-benzodioxole)picolinates and their use as herbicides” (Dow AgroSciences LLC, priority 2018, dated 2023)

What was measured:
Type in all cases: in vivo
[1] = system: ABUTH: velvetleaf (Abutilon theophrasti); test: Post-emergent herbicidal test, velvetleaf; conditions: post-emergence, 336 h, 14 days after application, read-out: Visual Growth Reduction (%) 14 Days After Application ABUTH; for pest or weed control at 17.5 g/ha: 17.5 g ai/ha; for pest or weed control at 35 g/ha: 35 g ai/ha; for pest or weed control at 70 g/ha: 70 g ai/ha; for pest or weed control at 140 g/ha: 140 g ai/ha
Method in brief: (§1)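 Plants are raised in potting mix of pH 6.0 to 6.8 in a greenhouse until the first or second true leaf, then sprayed with formulated compound at 187 L/ha at several rates (½× to 1/16× of the top rate). After 14 d, damage is rated visually as percent injury against untreated plants.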

[2] = system: BRSNN: oilseed rape, canola (Brassica napus); test: Post-emergent herbicidal test, oilseed rape; conditions: post-emergence, 336 h, 14 days after application, read-out: Visual Growth Reduction (%) 14 Days After Application BRSNN; for pest or weed control at 17.5 g/ha: 17.5 g ai/ha; for pest or weed control at 35 g/ha: 35 g ai/ha; for pest or weed control at 70 g/ha: 70 g ai/ha; for pest or weed control at 140 g/ha: 140 g ai/ha
Method in brief: as §1

[3] = system: CIRAR: Canada thistle (Cirsium arvense); test: Post-emergent herbicidal test, Canada thistle; conditions: post-emergence, 336 h, 14 days after application, read-out: Visual Growth Reduction (%) 14 Days After Application CIRAR; for pest or weed control at 17.5 g/ha: 17.5 g ai/ha; for pest or weed control at 35 g/ha: 35 g ai/ha; for pest or weed control at 70 g/ha: 70 g ai/ha; for pest or weed control at 140 g/ha: 140 g ai/ha
Method in brief: as §1

[4] = system: EPHHL: wild poinsettia (Euphorbia heterophylla); test: Post-emergent herbicidal test, wild poinsettia; conditions: post-emergence, 336 h, 14 days after application, read-out: Visual Growth Reduction (%) 14 Days After Application EPHHL; for pest or weed control at 17.5 g/ha: 17.5 g ai/ha; for pest or weed control at 35 g/ha: 35 g ai/ha; for pest or weed control at 70 g/ha: 70 g ai/ha; for pest or weed control at 140 g/ha: 140 g ai/ha
Method in brief: as §1

[5] = system: IPOHE: ivyleaf morningglory (Ipomoea hederacea); test: Post-emergent herbicidal test, ivyleaf morningglory; conditions: post-emergence, 336 h, 14 days after application, read-out: Visual Growth Reduction (%) 14 Days After Application IPOHE; for pest or weed control at 17.5 g/ha: 17.5 g ai/ha; for pest or weed control at 35 g/ha: 35 g ai/ha; for pest or weed control at 70 g/ha: 70 g ai/ha; for pest or weed control at 140 g/ha: 140 g ai/ha
Method in brief: as §1

[6] = system: VIOTR: wild violet (Viola tricolor); test: Post-emergent herbicidal test, wild violet; conditions: post-emergence, 336 h, 14 days after application, read-out: Visual Growth Reduction (%) 14 Days After Application VIOTR; for pest or weed control at 17.5 g/ha: 17.5 g ai/ha; for pest or weed control at 35 g/ha: 35 g ai/ha; for pest or weed control at 70 g/ha: 70 g ai/ha; for pest or weed control at 140 g/ha: 140 g ai/ha
Method in brief: as §1

[7] = system: CYPES: yellow nutsedge (Cyperus esculentus); test: Post-emergent herbicidal test, yellow nutsedge; conditions: post-emergence, 336 h, 14 days after application, read-out: Visual Growth Reduction (%) 14 Days After Application CYPES; for pest or weed control at 17.5 g/ha: 17.5 g ai/ha; for pest or weed control at 35 g/ha: 35 g ai/ha; for pest or weed control at 70 g/ha: 70 g ai/ha; for pest or weed control at 140 g/ha: 140 g ai/ha
Method in brief: as §1

[8] = system: DIGSA: large crabgrass (Digitaria sanguinalis); test: Post-emergent herbicidal test, large crabgrass; conditions: post-emergence, 336 h, 14 days after application, read-out: Visual Growth Reduction (%) 14 Days After Application DIGSA; for pest or weed control at 17.5 g/ha: 17.5 g ai/ha; for pest or weed control at 35 g/ha: 35 g ai/ha; for pest or weed control at 70 g/ha: 70 g ai/ha; for pest or weed control at 140 g/ha: 140 g ai/ha
Method in brief: as §1

[9] = system: ECHCG: barnyardgrass (Echinochloa crus-galli); test: Post-emergent herbicidal test, barnyardgrass; conditions: post-emergence, 336 h, 14 days after application, read-out: Visual Growth Reduction (%) 14 Days After Application ECHCG; for pest or weed control at 17.5 g/ha: 17.5 g ai/ha; for pest or weed control at 35 g/ha: 35 g ai/ha; for pest or weed control at 70 g/ha: 70 g ai/ha; for pest or weed control at 140 g/ha: 140 g ai/ha
Method in brief: as §1

[10] = system: SETFA: giant foxtail (Setaria faberi); test: Post-emergent herbicidal test, giant foxtail; conditions: post-emergence, 336 h, 14 days after application, read-out: Visual Growth Reduction (%) 14 Days After Application SETFA; for pest or weed control at 17.5 g/ha: 17.5 g ai/ha; for pest or weed control at 35 g/ha: 35 g ai/ha; for pest or weed control at 70 g/ha: 70 g ai/ha; for pest or weed control at 140 g/ha: 140 g ai/ha
Method in brief: as §1

[11] = system: SORVU: shattercane (Sorghum bicolor); test: Post-emergent herbicidal test, shattercane; conditions: post-emergence, 336 h, 14 days after application, read-out: Visual Growth Reduction (%) 14 Days After Application SORVU; for pest or weed control at 17.5 g/ha: 17.5 g ai/ha; for pest or weed control at 35 g/ha: 35 g ai/ha; for pest or weed control at 70 g/ha: 70 g ai/ha; for pest or weed control at 140 g/ha: 140 g ai/ha
Method in brief: as §1

COC(=O)c1nc(-c2ccc(Cl)c3c2OCO3)c(F)c(N)c1Cl [Compound 1A, methyl 4-amino-3-chloro-6-(7-chlorobenzo[d][1,3]dioxol-4-yl)-5-fluoropicolinate]
pest or weed control at 17.5 g/ha [1]: 85% | pest or weed control at 35 g/ha [1]: 90% | pest or weed control at 70 g/ha [1]: 93% | pest or weed control at 140 g/ha [1]: 95% | pest or weed control at 17.5 g/ha [2]: 78% | pest or weed control at 35 g/ha [2]: 88% | pest or weed control at 70 g/ha [2]: 95% | pest or weed control at 140 g/ha [2]: 98% | pest or weed control at 17.5 g/ha [3]: 83% | pest or weed control at 35 g/ha [3]: 83% | pest or weed control at 70 g/ha [3]: 88% | pest or weed control at 140 g/ha [3]: 93% | pest or weed control at 17.5 g/ha [4]: 3% | pest or weed control at 35 g/ha [4]: 10% | pest or weed control at 70 g/ha [4]: 13% | pest or weed control at 140 g/ha [4]: 18% | pest or weed control at 17.5 g/ha [5]: 0% | pest or weed control at 35 g/ha [5]: 0% | pest or weed control at 70 g/ha [5]: 0% | pest or weed control at 140 g/ha [5]: 0% | pest or weed control at 17.5 g/ha [6]: 53% | pest or weed control at 35 g/ha [6]: 95% | pest or weed control at 70 g/ha [6]: 75% | pest or weed control at 140 g/ha [6]: 90% | pest or weed control at 17.5 g/ha [7]: 78% | pest or weed control at 35 g/ha [7]: 83% | pest or weed control at 70 g/ha [7]: 83% | pest or weed control at 140 g/ha [7]: 80% | pest or weed control at 17.5 g/ha [8]: 5% | pest or weed control at 35 g/ha [8]: 20% | pest or weed control at 70 g/ha [8]: 50% | pest or weed control at 140 g/ha [8]: 28% | pest or weed control at 17.5 g/ha [9]: 8% | pest or weed control at 35 g/ha [9]: 18% | pest or weed control at 70 g/ha [9]: 28% | pest or weed control at 140 g/ha [9]: 30% | pest or weed control at 17.5 g/ha [10]: 15% | pest or weed control at 35 g/ha [10]: 15% | pest or weed control at 70 g/ha [10]: 25% | pest or weed control at 140 g/ha [10]: 30% | pest or weed control at 17.5 g/ha [11]: 25% | pest or weed control at 35 g/ha [11]: 43% | pest or weed control at 70 g/ha [11]: 55% | pest or weed control at 140 g/ha [11]: 65%

COC(=O)c1nc(-c2ccc(F)c3c2OC(F)(F)O3)c(F)c(N)c1Cl [Compound 7]
pest or weed control at 17.5 g/ha [1]: 50% | pest or weed control at 35 g/ha [1]: 70% | pest or weed control at 70 g/ha [1]: 75% | pest or weed control at 140 g/ha [1]: 85% | pest or weed control at 17.5 g/ha [2]: 50% | pest or weed control at 35 g/ha [2]: 60% | pest or weed control at 70 g/ha [2]: 80% | pest or weed control at 140 g/ha [2]: 85% | pest or weed control at 17.5 g/ha [3]: 60% | pest or weed control at 35 g/ha [3]: 70% | pest or weed control at 70 g/ha [3]: 75% | pest or weed control at 140 g/ha [3]: 80% | pest or weed control at 17.5 g/ha [4]: 0% | pest or weed control at 35 g/ha [4]: 0% | pest or weed control at 70 g/ha [4]: 10% | pest or weed control at 140 g/ha [4]: 20% | pest or weed control at 17.5 g/ha [5]: 0% | pest or weed control at 35 g/ha [5]: 0% | pest or weed control at 70 g/ha [5]: 0% | pest or weed control at 140 g/ha [5]: 0% | pest or weed control at 17.5 g/ha [6]: 5% | pest or weed control at 35 g/ha [6]: 10% | pest or weed control at 70 g/ha [6]: 40% | pest or weed control at 140 g/ha [6]: 50% | pest or weed control at 17.5 g/ha [7]: 0% | pest or weed control at 35 g/ha [7]: 10% | pest or weed control at 70 g/ha [7]: 30% | pest or weed control at 140 g/ha [7]: 40% | pest or weed control at 17.5 g/ha [8]: 0% | pest or weed control at 35 g/ha [8]: 0% | pest or weed control at 70 g/ha [8]: 0% | pest or weed control at 140 g/ha [8]: 0% | pest or weed control at 17.5 g/ha [9]: 0% | pest or weed control at 35 g/ha [9]: 0% | pest or weed control at 70 g/ha [9]: 0% | pest or weed control at 140 g/ha [9]: 0% | pest or weed control at 17.5 g/ha [10]: 0% | pest or weed control at 35 g/ha [10]: 0% | pest or weed control at 70 g/ha [10]: 0% | pest or weed control at 140 g/ha [10]: 10% | pest or weed control at 17.5 g/ha [11]: 0% | pest or weed control at 35 g/ha [11]: 0% | pest or weed control at 70 g/ha [11]: 0% | pest or weed control at 140 g/ha [11]: 0%
